Assay results: PMC8911884, “Discovery of Novel 3,4-Dihydro-2(1H)-Quinolinone Sulfonamide Derivatives as New Tubulin Polymerization Inhibitors with Anti-Cancer Activity” (Molecules, 2022)

Legend:
HeLa = assay: MTT antiproliferative assay, HeLa; assay type: cell-based, human; conditions: 48 h, mean ± SD
Description: (§1) The MTT method was used to evaluate the anti-tumor activity and cytotoxic activity of all the synthesized compounds in four tumor cell lines (HeLa, HCT-116, A549 and HepG-2) and normal liver cells (L02). At the same time, the 5-fluorouracil(5-Fu) and CA-4 were used as positive references. […] Unfortunately, our target compound has a similar cytotoxicity to tumor cells and normal cells.
(§2) The HeLa, HCT-116, A549 and HepG-2 cells in the logarithmic growth phase were trypsinized, diluted with 10% DMEM medium and evenly seeded in a 96-well plate with 1 × 10^4 cells per well. We placed the inoculated 96-well plate in an incubator at 37 °C and 5% CO2 for 4 h. After the cells adhered to the wall, we removed the medium. We added 150 μL of medicated medium (1% DMEM) to each well of the experimental group, and the control group was added with an equal volume of solvent, with 3 replicate holes for each concentration. Then, we put it in the incubator and continued to incubate for 48 h. After that, we added MTT reagent in the dark, continued incubating for 4 h, discarded the supernatant, added 150 µL DMSO to each well and shook it for 10 min in the dark to fully dissolved the formazan. The absorbance was read at 492 nm by a microplate reader (ELx 800, BioTek, Highland Park, Winooski, VT, USA).
(§3) The inhibition rate (%) = (1-dosing hole OD value/control hole OD value); we drew a logarithmic curve diagram according to the inhibition rate and the dosing concentration to obtain the half inhibitory concentration.

A549 = assay: MTT antiproliferative assay, A549; assay type: cell-based, human; conditions: mean ± SD
Procedure: The MTT method was used to evaluate the anti-tumor activity and cytotoxic activity of all the synthesized compounds in four tumor cell lines (HeLa, HCT-116, A549 and HepG-2) and normal liver cells (L02).
as §2, §3

HCT116 = assay: MTT antiproliferative assay, HCT116; assay type: cell-based, human; conditions: mean ± SD
Description: as §1, §2, §3

L02 = assay: MTT cytotoxicity assay, normal liver cells L02; assay type: cell-based; conditions: mean ± SD
Description: as §1, §2, §3

[1] = test system: HeLa, HCT-116, A549 and HepG-2; assay: MTT antiproliferative activity across the four tumor cell lines; assay type: cell-based, human; conditions: SAR discussion
Description: as §1
As shown in, at the beginning, we first synthesized the ortho and meta substituted compounds, D7, D8, D9, D11 and D15. […] Then, we decided to introduce para-substituted benzaldehyde. […] This stimulated our interest, so we continued to introduce -OCH3 substituted at different positions to explore the effect of -OCH3 substituted at different positions on the anti-tumor activity of the compound. […] In short, we obtained a compound named D13 with good anti-tumor activity, and it was worthy of further study.
as §2, §3

HepG-2 = assay: MTT antiproliferative assay, HepG-2; assay type: cell-based, human; conditions: mean ± SD
Description: as §1, §2, §3

| Molecule | IC50 (HeLa; Homo sapiens, HeLa) [µM] | IC50 (A549; Homo sapiens, A549, 48 h) [µM] | IC50 (HCT116; Homo sapiens, HCT-116, 48 h) [µM] | IC50 (L02; Homo sapiens, L02, 48 h) [µM] | antiproliferative activity (in words) [1] | melting point [°C] | IC50 (HepG-2; Homo sapiens, HepG2, 48 h) [µM] | IC50 (HeLa) [µM] | IC50 (A549; 48 h) [µM] | IC50 (HCT116; 48 h) [µM] | IC50 (HepG-2; 48 h) [µM] | IC50 (L02; 48 h) [µM] |
| --- | --- | --- | --- | --- | --- | --- | --- | --- | --- | --- | --- | --- |
| COc1ccc(CN(c2cc(OC)c(OC)c(OC)c2)S(=O)(=O)c2ccc3c(c2)CCC(=O)N3)cc1OC [Compound D14, N-(3,4-dimethoxybenzyl)-2-oxo-N-(3,4,5-trimethoxyphenyl)-1,2,3,4-tetrahydroquinoline-6-sulfonamide] | > 100 | 49.3 ± 12.5 | 87.8 ± 15.2 | 66.5 ± 7.81 | poor antiproliferative activity | 116 to 118 |  |  |  |  |  |  |
| O=c1[nH]cc(F)c(=O)[nH]1 [Compound 5-Fu, 5-fluorouracil, reference compound] | 29.6 ± 3.21 |  | 11.7 ± 2.37 | 20 ± 1.25 |  |  | 18.3 ± 0.76 |  |  |  |  |  |
| COc1cccc(CN(c2cc(OC)c(OC)c(OC)c2)S(=O)(=O)c2ccc3c(c2)CCC(=O)N3)c1 [Compound D12, N-(3-methoxybenzyl)-2-oxo-N-(3,4,5-trimethoxyphenyl)-1,2,3,4-tetrahydroquinoline-6-sulfonamide] | 54.6 ± 8.15 |  | 48.2 ± 7.46 | 56.3 ± 2.15 | poor antiproliferative activity | 121 to 123 | 64.1 ± 7.56 |  |  |  |  |  |
| COc1ccc(OC)c(CN(c2cc(OC)c(OC)c(OC)c2)S(=O)(=O)c2ccc3c(c2)CCC(=O)N3)c1 [Compound D15] | 86.4 ± 14.2 |  | > 100 | > 100 | poor antiproliferative activity | 127 to 129 | 75.4 ± 15.4 |  |  |  |  |  |
| COc1cc(N(Cc2ccc(F)cc2)S(=O)(=O)c2ccc3c(c2)CCC(=O)N3)cc(OC)c1OC [Compound D3, N-(4-fluorobenzyl)-2-oxo-N-(3,4,5-trimethoxyphenyl)-1,2,3,4-tetrahydroquinoline-6-sulfonamide] | 7.54 ± 1.48 | 18.2 ± 4.11 | 3.87 ± 0.12 | 5.31 ± 1.08 | strong anti-proliferative activity | 108 to 110 | 6.31 ± 1.21 |  |  |  |  |  |
| N-benzyl-2-oxo-N-(3,4,5-trimethoxyphenyl)-1,2,3,4-tetrahydroquinoline-7-sulfonamide [Compound D1] |  |  |  |  | strong anti-proliferative activity |  |  | 13.5 ± 2.15 | 14.2 ± 1.26 | 25.9 ± 0.98 | 9.87 ± 2.49 | 20.7 ± 3.12 |
| COc1ccc(/C=C\c2cc(OC)c(OC)c(OC)c2)cc1O [CA-4, Combretastatin A-4, reference compound] | 0.02 ± 0.001 | 0.12 ± 0.023 | 0.04 ± 0.016 | 0.15 ± 0.05 |  |  | 0.05 ± 0.021 |  |  |  |  |  |
| COc1cc(N(Cc2ccccc2F)S(=O)(=O)c2ccc3c(c2)CCC(=O)N3)cc(OC)c1OC [Compound D8, N-(2-fluorobenzyl)-2-oxo-N-(3,4,5-trimethoxyphenyl)-1,2,3,4-tetrahydroquinoline-6-sulfonamide] | 21.6 ± 3.56 | > 100 | 17.5 ± 1.33 | 60.2 ± 4.21 | poor antiproliferative activity | 138 to 140 | 50.9 ± 6.77 |  |  |  |  |  |
| COc1cc(N(Cc2ccc(Cl)c(Cl)c2)S(=O)(=O)c2ccc3c(c2)CCC(=O)N3)cc(OC)c1OC [Compound D10, N-(3,4-dichlorobenzyl)-2-oxo-N-(3,4,5-trimethoxyphenyl)-1,2,3,4-tetrahydroquinoline-6-sulfonamide] | 75.3 ± 10.3 | > 100 | 51.2 ± 13.5 | 48.3 ± 6.64 |  | 123 to 125 |  |  |  |  |  |  |
| COc1cc(N(Cc2cccc(C)c2)S(=O)(=O)c2ccc3c(c2)CCC(=O)N3)cc(OC)c1OC [Compound D7, N-(3-methylbenzyl)-2-oxo-N-(3,4,5-trimethoxyphenyl)-1,2,3,4-tetrahydroquinoline-6-sulfonamide] | 36.5 ± 3.59 | 35 ± 6.74 | 28.2 ± 4.26 | 30.2 ± 2.56 | poor antiproliferative activity | 120 to 122 | 44.3 ± 4.31 |  |  |  |  |  |
| COc1cc(N(Cc2ccccc2Cl)S(=O)(=O)c2ccc3c(c2)CCC(=O)N3)cc(OC)c1OC [Compound D9, N-(2-chlorobenzyl)-2-oxo-N-(3,4,5-trimethoxyphenyl)-1,2,3,4-tetrahydroquinoline-6-sulfonamide] | 16.9 ± 4.11 | 31.7 ± 4.55 | 12.2 ± 2.89 | 36.2 ± 4.21 | poor antiproliferative activity | 117 to 119 | 27.5 ± 3.28 |  |  |  |  |  |
| COc1cc(N(Cc2ccc(C)cc2)S(=O)(=O)c2ccc3c(c2)CCC(=O)N3)cc(OC)c1OC [Compound D5, N-(4-methylbenzyl)-2-oxo-N-(3,4,5-trimethoxyphenyl)-1,2,3,4-tetrahydroquinoline-6-sulfonamide] | 1.34 ± 0.3 | 2.96 ± 0.13 | 1.13 ± 0.01 | 3.05 ± 0.19 | strong anti-proliferative activity | 128 to 130 | 2.36 ± 0.11 |  |  |  |  |  |
| COc1cc(N(Cc2ccc(Cl)cc2)S(=O)(=O)c2ccc3c(c2)CCC(=O)N3)cc(OC)c1OC [Compound D4, N-(4-chlorobenzyl)-2-oxo-N-(3,4,5-trimethoxyphenyl)-1,2,3,4-tetrahydroquinoline-6-sulfonamide] | 9.67 ± 2.1 | 8.49 ± 1.77 | 4.21 ± 0.5 | 6.35 ± 2.03 | strong anti-proliferative activity | 119 to 121 | 4.12 ± 0.55 |  |  |  |  |  |
| COc1cc(CN(c2cc(OC)c(OC)c(OC)c2)S(=O)(=O)c2ccc3c(c2)CCC(=O)N3)cc(OC)c1OC [Compound D16, 2-oxo-N-(3,4,5-trimethoxybenzyl)-N-(3,4,5-trimethoxyphenyl)-1,2,3,4-tetrahydroquinoline-6-sulfonamide] | 4.91 ± 0.76 | 7.34 ± 1.44 | 2.08 ± 0.24 | 4.25 ± 0.87 |  | 131 to 133 | 5.48 ± 1.23 |  |  |  |  |  |
| COc1cc(N(Cc2ccc(N(C)C)cc2)S(=O)(=O)c2ccc3c(c2)CCC(=O)N3)cc(OC)c1OC [Compound D6, N-(4-(dimethylamino)benzyl)-2-oxo-N-(3,4,5-trimethoxyphenyl)-1,2,3,4-tetrahydroquinoline-6-sulfonamide] | 3.63 ± 0.98 | 2.42 ± 0.46 | 2.05 ± 0.11 | 5.31 ± 1.02 | strong anti-proliferative activity | 127 to 129 | 4.74 ± 1.56 |  |  |  |  |  |
